{"source": "patent US11022550B2", "about": "“Method for observing organisms and associated system” (Commissariat à l'énergie atomique et aux énergies …, priority 2013, dated 2021)", "assay_type_in_all_cases": "cell-based", "key": {"[1]": {"system": "Escherichia coli ATCC 259922 (strain EC10)", "experiment": "E-test minimum inhibitory concentration, sensitive strain EC10", "description": "The sensitive strain is of the Escherichia coli species with the ATCC number of 259922. In the continuation of the description, the sensitive strain is noted as EC10. The minimum inhibitory concentration of the strain EC10 amounts to 1.0 μg/ml. In microbiology, the minimum inhibitory concentration (also noted with the acronym MIC) is the lowest concentration of antimicrobial agent which inhibits visible growth of an organism after one night of incubation. The value of 1.0 μg/ml for the minimum inhibitory concentration was obtained by conducting an E-test®. The principle of the E-test® is based on the combination of both concepts: Dilution and diffusion. The system E-test® comprises a non-porous plastic strip calibrated by a pre-established gradient of antibiotic concentration covering 15 dilutions for determining the MIC in μg/ml of a strain tested in a gelose medium."}, "[2]": {"system": "Escherichia coli ATCC 35421 (strain EC21)", "experiment": "E-test minimum inhibitory concentration, resistant strain EC21", "excerpt": "The principle of the E-test® is based on the combination of both concepts: Dilution and diffusion. The system E-test® comprises a non-porous plastic strip calibrated by a pre-established gradient of antibiotic concentration covering 15 dilutions for determining the MIC in μg/ml of a strain tested in a gelose medium.\nThe resistant strain is of the Escherichia coli species of ATCC number 35421. In the continuation of the description, the resistant strain is noted as EC21.\nThis measurement was obtained by conducting an E-test®."}, "[3]": {"system": "Escherichia coli strain EC10", "experiment": "Microcolony growth and diffraction patterns on MH2 agar with gentamycin disc gradient, strain EC10 (first and third experiments)", "excerpt": "The solid substrate 16 is a MH2 agar medium. Depending on the cases, the solid substrate 16 includes an antibiotic with increasing concentration when one moves away from the center of the Petri dish. For example, such a gradient is obtained by depositing a disc impregnated with 30 micrograms (μg) of antibiotics. The disc, as an illustration, is a disc with a diameter of 6.5 mm, the reference of which is 66548 in the Biorad Corporation. When the disc is deposited at the surface of the substrate 16, an antibiotic concentration gradient is established, in the substrate 16, between the disc and the periphery of the substrate 16. In each case, the sample 12 to be studied is prepared according to the following procedure. At least one cell of the strain to be studied is cultivated on a trypticase soya gelose medium (often called TSA for <<Tryptic Soy Agar>>) for at least 24 hours. A suspension of 5 milliliters (ml) comprising water and an amount of cells of the strain such that the turbidity of the solution is equal to 0.5 McF (McFarland standard), is then prepared. The obtained suspension is diluted to 1/1000th in water in a single step. In the relevant experiments, […] are poured into […]. A volume of 70 μl of the thereby obtained diluted suspension is then spread out by means of a rake on the solid MH2 agar substrate 16. Such a volume corresponds to the spreading of approximately 1,000 to 1,500 colonies on the solid substrate 16. In the case when the experiment is conducted with a solid substrate 16 comprising the antibiotic gradient, the disc is applied immediately after the spreading step. The whole of the sample 12 is then incubated for six hours at a temperature of 37° C. (Celsius). After these six hours, the observation system 10 is used for applying a method for observing the cells of the sample 12. For the first experiment, the studied organisms belong to the EC10 strain and the solid substrate 16 comprises a gentamycin gradient. A first colony of cells of the EC10 strain of the sample 12 is illuminated with the laser beam emitted by the laser source 20. The center of this colony is found at a distance of 13.5 millimeters (mm) from the center of the disc, in an area with low gentamycin concentration, since it is sufficiently far from the disc. For the third experiment, a large number of diffraction patterns is acquired (about 100) for solid substrates 16 with and without gentamycin. The studied organism is a cell from the EC10 strain."}, "[4]": {"system": "Escherichia coli strain EC21", "experiment": "Microcolony growth and diffraction patterns on MH2 agar with gentamycin disc gradient, strain EC21 (second experiment)", "excerpt": "The solid substrate 16 is a MH2 agar medium. Depending on the cases, the solid substrate 16 includes an antibiotic with increasing concentration when one moves away from the center of the Petri dish. For example, such a gradient is obtained by depositing a disc impregnated with 30 micrograms (μg) of antibiotics. The disc, as an illustration, is a disc with a diameter of 6.5 mm, the reference of which is 66548 in the Biorad Corporation. When the disc is deposited at the surface of the substrate 16, an antibiotic concentration gradient is established, in the substrate 16, between the disc and the periphery of the substrate 16. In each case, the sample 12 to be studied is prepared according to the following procedure. At least one cell of the strain to be studied is cultivated on a trypticase soya gelose medium (often called TSA for <<Tryptic Soy Agar>>) for at least 24 hours. A suspension of 5 milliliters (ml) comprising water and an amount of cells of the strain such that the turbidity of the solution is equal to 0.5 McF (McFarland standard), is then prepared. The obtained suspension is diluted to 1/1000th in water in a single step. In the relevant experiments, […] are poured into […]. A volume of 70 μl of the thereby obtained diluted suspension is then spread out by means of a rake on the solid MH2 agar substrate 16. Such a volume corresponds to the spreading of approximately 1,000 to 1,500 colonies on the solid substrate 16. In the case when the experiment is conducted with a solid substrate 16 comprising the antibiotic gradient, the disc is applied immediately after the spreading step. The whole of the sample 12 is then incubated for six hours at a temperature of 37° C. (Celsius). After these six hours, the observation system 10 is used for applying a method for observing the cells of the sample 12. For the second experiment, the same experiment is conducted as the first experiment, by replacing the cells of the strain EC10 with cells of the strain EC21. […]"}}}
{"substance": "gentamycin", "values": [{"measurement": "minimum inhibitory concentration (MIC)", "setting": "[1]", "value": 1.0, "unit": "µg/mL"}, {"measurement": "minimum inhibitory concentration (MIC)", "setting": "[2]", "value": "greater than 256 μg/ml"}, {"measurement": "maximum size of colony in direct space", "setting": "[3]; 5.0 mm from center of 30 μg disc, 6 h incubation at 37° C.", "value": "about 15 μm"}, {"measurement": "maximum size of colony in direct space", "setting": "[3]; 8.3 mm from center of 30 μg disc, 6 h incubation at 37° C.", "value": "about 30 μm"}, {"measurement": "maximum size of colony in direct space", "setting": "[3]; 9.1 mm from center of 30 μg disc, 6 h incubation at 37° C.", "value": "about 50 μm"}, {"measurement": "colony diameter in direct space", "setting": "[3]; 13.5 mm from center of 30 μg disc, 6 h incubation at 37° C.", "value": "about 60 μm"}, {"measurement": "sensitivity of organism from main component analysis of diffraction patterns", "setting": "[3]; about 100 diffraction patterns, with and without gentamycin, first main component smaller at larger concentration", "value": "sensitive"}, {"measurement": "maximum extension of each observed colony", "setting": "[4]; 7.29, 6.63, 5.53 and 4.37 mm from center of 30 μg disc, 6 h incubation at 37° C.", "value": "~90", "unit": "μm"}, {"measurement": "sensitivity of organism from comparison of diffraction patterns", "setting": "[4]; diffraction patterns substantially identical at increasing gentamycin concentration", "value": "resistant"}, {"measurement": "effect on growth of the organisms", "setting": "[4]; gentamycin gradient on MH2 agar", "value": "no effect on the growth"}]}
